Tested on: 227483-062-R1-J1-PDC complex spheroids with HUVEC/MSC, viability
Assay: Anticancer human tumor 227483-062-R1-J1-PDC patient-derived pancreatic carcinoma cell line growth inhibition [CLK]
Conditions: for IC50: curve of first compound; for viability, T/C: stronger effect = lower value
Source text: A high-throughput screen of multi-cell type tumor spheroids was designed to identify active combinations of […] and targeted small molecules. Complex spheroids include a stromal component modeled by human endothelial cells (HUVEC) and fibroblasts modeled by human mesenchymal stem cells (MSCs). The concentration ranges selected for each drug and investigational agent were based upon clinically achievable concentrations if the clinical Cmax of the agent was known.
Compounds. The drugs and investigational agents: cirtuvivint (SM08502; NSC835563), CC-671 (NSC850746), vemurafenib (NSC761431), tapotoclax (NSC804041), sotorasib (NSC818433), adagrasib (NSC831453), MRTX-1133 (NSC836407), BAY2416964 (NSC825713), copanlisib (NSC816437), inavolisib (NSC800729), abemaciclib (NSC768073), osimertinib (NSC779217), entinostat (NSC756642), eltanexor (KPT-8602, NSC794443), venetoclax (NSC766270), ceralasertib (NSC777638), bortezomib (NSC756655), olaparib (NSC753686), talazoparib (NSC767125), alisertib (NSC759677), peposertib (NSC802822), gemcitabine (NSC613327), 5-fluorouracil (NSC19893), SN-38 (NSC673596), oxaliplatin (NSC266046), paclitaxel (NSC125973), and doxorubicin (NSC123127), were obtained from the National Cancer Institute (NCI) Developmental Therapeutics Program Chemical Repository. The FDA-approved anticancer drug set is available from the Developmental Therapeutics Program at https://dtp.cancer.gov/organization/dscb/obtaining/available plates.htm. […] The stock solutions were prepared in dimethyl sulfoxide (DMSO, Sigma-Aldrich, St. Louis, MO, cat. D2650), except for the platinum complexes which were prepared in saline (Quality Biological, Gaithersburg, MD, cat. 114-055-101), at 800-fold the tested concentration and stored at -70 degrees C prior to their use. All drugs and investigational agents were tested over a range starting from a high concentration at or near the clinical Cmax and decreasing in half-log increments. If the clinical Cmax for an agent had not been determined, the highest concentration tested was 10 microM.
Cell Culture. All cells were maintained in an incubator at 37 degrees C and 5% CO2 with 95% humidity. The PDC lines were cultured according to standard operating procedures established by the NCI PDMR. Briefly, all PDCs were thawed and cultured in Matrigel-coated flasks prepared with a working solution of 1X Ham's F-12 nutrient mix, without supplementation (Invitrogen, Waltham, MA, cat. 11765054), 100 U/mL penicillin-streptomycin (Invitrogen, cat. 15140122), and 2.5% Matrigel (Corning Inc., Corning, NY, cat. 354248) for the first three passages. The 947758-054-R-J2-PDC line was cultured in 6B/Colon 1A media, which includes advanced DMEM/F-12 (Thermo Fisher Scientific, cat. 12634028), 10 mM HEPES (Thermo Fisher Scientific, cat. 15630080), 1X GlutaMAX supplement (Thermo Fisher Scientific, cat. 35050061), 0.1 mg/mL primocin (InvivoGen, cat. ant-pm-2), 10% defined fetal bovine serum, heat inactivated (HyClone Laboratories Inc., cat. SH30070.03HI), 1.25 mM N-Acetyl-L-cysteine (Sigma-Aldrich, cat. A9165), 10 mM nicotinamide (Sigma-Aldrich, cat. N0636), 1X B-27 supplement (Thermo Fisher Scientific, cat. 17504044), 1X N-2 supplement (Thermo Fisher Scientific, cat. 17502048), and 10 microM Y-27632 dihydrochloride (Tocris Bioscience, cat. 1254). The 876862-298-R-J1-PDC was cultured in 6E media, which includes all 6B/Colon 1A media components plus 50% L-WRN conditioned media (ATCC, cat. CRL-3276), 50 ng/mL recombinant human EGF recombinant protein (hEGF; Thermo Fisher Scientific, cat. PHG0311), 10 ng/mL recombinant human fibroblast growth factor 10 (hGFG-10; PeproTech, cat. 100-26), 1 ng/mL recombinant human fibroblast growth factor 2 (hFGF-2; PeproTech, cat. 100-18B), and 1 µM prostaglandin E2 (PGE2; Tocris, cat. 2296). The 227483-062-R1-J1-PDC line was cultured in Panc media, containing all 6E components except hFGF-2, with the addition of 500 nM SB-431542 (Selleckchem, cat. S1067) and 10 nM gastrin (Tocris, cat. 3006). […]

[1] = second compound 0.0316 µM, first compound 0.0316 µM
[2] = second compound 0.0316 µM, first compound 0.1 µM
[3] = second compound 0.0316 µM, first compound 0.316 µM
[4] = second compound 0.0316 µM, first compound 1 µM
[5] = second compound 0.0316 µM, first compound 3.16 µM
[6] = second compound 0.0316 µM, first compound 10 µM
[7] = second compound 0.1 µM, first compound 0.0316 µM
[8] = second compound 0.1 µM, first compound 0.1 µM
[9] = second compound 0.1 µM, first compound 0.316 µM
[10] = second compound 0.1 µM, first compound 1 µM
[11] = second compound 0.1 µM, first compound 3.16 µM
[12] = second compound 0.1 µM, first compound 10 µM
[13] = second compound 0.316 µM, first compound 0.0316 µM
[14] = second compound 0.316 µM, first compound 0.1 µM
[15] = second compound 0.316 µM, first compound 0.316 µM
[16] = second compound 0.316 µM, first compound 1 µM
[17] = second compound 0.316 µM, first compound 3.16 µM
[18] = second compound 0.316 µM, first compound 10 µM
[19] = second compound 1 µM, first compound 0.0316 µM
[20] = second compound 1 µM, first compound 0.1 µM
[21] = second compound 1 µM, first compound 0.316 µM
[22] = second compound 1 µM, first compound 1 µM
[23] = second compound 1 µM, first compound 3.16 µM
[24] = second compound 1 µM, first compound 10 µM
[25] = second compound 3.16 µM, first compound 0.0316 µM
[26] = second compound 3.16 µM, first compound 0.1 µM
[27] = second compound 3.16 µM, first compound 0.316 µM
[28] = second compound 3.16 µM, first compound 1 µM
[29] = second compound 3.16 µM, first compound 3.16 µM
[30] = second compound 3.16 µM, first compound 10 µM
[31] = second compound 10 µM, first compound 0.0316 µM
[32] = second compound 10 µM, first compound 0.1 µM
[33] = second compound 10 µM, first compound 0.316 µM
[34] = second compound 10 µM, first compound 1 µM
[35] = second compound 10 µM, first compound 3.16 µM
[36] = second compound 10 µM, first compound 10 µM
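Note: spheroids exposed to compounds for seven days before readout.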
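Throughout, for viability, T/C: percent of DMSO vehicle control luminescence as 100% viability.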

In the case of `C=C(F)C(=O)N1CCN(c2nc(OCC3CCCN3C)nc3c2CCN(c2cccc4cccc(Cl)c24)C3)CC1CC#N` (stereo unspecified) + CN1CCN(c2cc(C(=O)Nc3cc4cc(-c5cnn(C)c5)ccc4cn3)ccn2)CC1, the IC50 (second compound 0.0316 µM) is reported as 6190 nM, the IC50 (second compound 0.1 µM) is reported as 4890 nM and the IC50 (second compound 0.316 µM) is reported as less than 31.6 nM. The IC50 (second compound 1 µM) was less than 31.6 nM, the IC50 (second compound 3.16 µM) was less than 31.6 nM and the IC50 (second compound 10 µM) was less than 31.6 nM. It also gave a viability, T/C [1] of 87.7%, a viability, T/C [2] of 104% and a viability, T/C [3] of 102%. For the same molecule, the viability, T/C [4] was 86.8%, the viability, T/C [5] was 89.8% and the viability, T/C [6] was 21.3%. The viability, T/C [7] was 67.6%, the viability, T/C [8] was 73.8% and the viability, T/C [9] was 68%. For the same molecule, the viability, T/C [10] was 78.8%, the viability, T/C [11] was 78.2% and the viability, T/C [12] was 11.8%. The viability, T/C [13] was 5.59%, the viability, T/C [14] was 5.63% and the viability, T/C [15] was 5.48%. The viability, T/C [16] was 4.47%, the viability, T/C [17] was 5.37% and the viability, T/C [18] was 0.42%. The viability, T/C [19] was 3.8%, the viability, T/C [20] was 3.22% and the viability, T/C [21] was 2.15%. For the same molecule, the viability, T/C [22] was 3.98%, the viability, T/C [23] was 0.88% and the viability, T/C [24] was 0.97%. For the same molecule, the viability, T/C [25] was 5.83%, the viability, T/C [26] was 2.98% and the viability, T/C [27] was 3.49%. The viability, T/C [28] was 4.77%, the viability, T/C [29] was 1.3% and the viability, T/C [30] was 1.8%. The viability, T/C [31] was 3.7%, the viability, T/C [32] was 1.84% and the viability, T/C [33] was 3.88%. The viability, T/C [34] was 2.09%, the viability, T/C [35] was 1.69% and the viability, T/C [36] was 0.39%.

With `C=CC(=O)N1CCN(c2nc(=O)n(-c3c(C)ccnc3C(C)C)c3nc(-c4c(O)cccc4F)c(F)cc23)C(C)C1` (stereo unspecified) + CN1CCN(c2cc(C(=O)Nc3cc4cc(-c5cnn(C)c5)ccc4cn3)ccn2)CC1 the IC50 (second compound 0.0316 µM) was greater than 10000 nM, the IC50 (second compound 0.1 µM) was greater than 10000 nM and the IC50 (second compound 0.316 µM) was less than 31.6 nM. It also gave an IC50 (second compound 1 µM) of less than 31.6 nM, an IC50 (second compound 3.16 µM) of less than 31.6 nM and an IC50 (second compound 10 µM) of less than 31.6 nM. It also gave a viability, T/C [1] of 90.4%, a viability, T/C [2] of 97.5% and a viability, T/C [3] of 94.7%. It also gave a viability, T/C [4] of 104%, a viability, T/C [5] of 104% and a viability, T/C [6] of 85.5%. For the same molecule, the viability, T/C [7] was 63.2%, the viability, T/C [8] was 68.1% and the viability, T/C [9] was 63.1%. The viability, T/C [10] was 76.8%, the viability, T/C [11] was 66.4% and the viability, T/C [12] was 52.7%. For the same molecule, the viability, T/C [13] was 6.84%, the viability, T/C [14] was 6.59% and the viability, T/C [15] was 5.21%. For the same molecule, the viability, T/C [16] was 7.81%, the viability, T/C [17] was 5.13% and the viability, T/C [18] was 3.55%. For the same molecule, the viability, T/C [19] was 3.36%, the viability, T/C [20] was 2.83% and the viability, T/C [21] was 2.54%. The viability, T/C [22] was 3.57%, the viability, T/C [23] was 6.05% and the viability, T/C [24] was 3.88%. For the same molecule, the viability, T/C [25] was 3.58%, the viability, T/C [26] was 3.65% and the viability, T/C [27] was 5.09%. For the same molecule, the viability, T/C [28] was 5.88%, the viability, T/C [29] was 6.54% and the viability, T/C [30] was 6.07%. The viability, T/C [31] was 3.12%, the viability, T/C [32] was 2.35% and the viability, T/C [33] was 4.11%. For the same molecule, the viability, T/C [34] was 3.93%, the viability, T/C [35] was 6.11% and the viability, T/C [36] was 3.94%.

`COC1C=CCC(C)C(C)S(=O)(=O)NC(=O)c2ccc3c(c2)N(CC2CCC21)CC1(CCCc2cc(Cl)ccc21)CO3` (stereo unspecified) + CN1CCN(c2cc(C(=O)Nc3cc4cc(-c5cnn(C)c5)ccc4cn3)ccn2)CC1 gave an IC50 (second compound 0.0316 µM) of 5880 nM, an IC50 (second compound 0.1 µM) of 306 nM and an IC50 (second compound 0.316 µM) of less than 31.6 nM. For the same molecule, the IC50 (second compound 1 µM) was less than 31.6 nM, the IC50 (second compound 3.16 µM) was less than 31.6 nM and the IC50 (second compound 10 µM) was less than 31.6 nM. The viability, T/C [1] was 94.5%, the viability, T/C [2] was 89.8% and the viability, T/C [3] was 109%. The viability, T/C [4] was 87.1%, the viability, T/C [5] was 82.4% and the viability, T/C [6] was 23.2%. For the same molecule, the viability, T/C [7] was 74.2%, the viability, T/C [8] was 77.4% and the viability, T/C [9] was 45.6%. It also gave a viability, T/C [10] of 25.9%, a viability, T/C [11] of 14.9% and a viability, T/C [12] of 9.47%. For the same molecule, the viability, T/C [13] was 5.64%, the viability, T/C [14] was 6.22% and the viability, T/C [15] was 4.57%. It also gave a viability, T/C [16] of 5.41%, a viability, T/C [17] of 4.64% and a viability, T/C [18] of 2.38%. It also gave a viability, T/C [19] of 1.87%, a viability, T/C [20] of 1.41% and a viability, T/C [21] of 1.74%. It also gave a viability, T/C [22] of 2.02%, a viability, T/C [23] of 3.06% and a viability, T/C [24] of 3.77%. For the same molecule, the viability, T/C [25] was 4.46%, the viability, T/C [26] was 3.64% and the viability, T/C [27] was 3.99%. For the same molecule, the viability, T/C [28] was 2.73%, the viability, T/C [29] was 2.81% and the viability, T/C [30] was 1.89%. The viability, T/C [31] was 4.15%, the viability, T/C [32] was 2.18% and the viability, T/C [33] was 2.3%. The viability, T/C [34] was 2.91%, the viability, T/C [35] was 2.23% and the viability, T/C [36] was 1.54%.

From PubChem BioAssay AID2060623 (Molecular Pharmacology Branch, DTP, NCI, 2025)
